SMILES strings stand for the structures. Read-outs that look alike come from different tables or passages of the source.

Here are results for 10 compounds from patent US7709482B2, “Polycyclic heteroaryl substituted triazoles useful as Axl inhibitors” (Rigel Pharmaceuticals, Inc., priority 2006, dated 2010).

The experiment concerns the target T1, Axl (Homo sapiens, UniProt P30530).
T1 construct: endogenous in cells; host or cells: HeLa cells
T1 sequence (P30530 26-894): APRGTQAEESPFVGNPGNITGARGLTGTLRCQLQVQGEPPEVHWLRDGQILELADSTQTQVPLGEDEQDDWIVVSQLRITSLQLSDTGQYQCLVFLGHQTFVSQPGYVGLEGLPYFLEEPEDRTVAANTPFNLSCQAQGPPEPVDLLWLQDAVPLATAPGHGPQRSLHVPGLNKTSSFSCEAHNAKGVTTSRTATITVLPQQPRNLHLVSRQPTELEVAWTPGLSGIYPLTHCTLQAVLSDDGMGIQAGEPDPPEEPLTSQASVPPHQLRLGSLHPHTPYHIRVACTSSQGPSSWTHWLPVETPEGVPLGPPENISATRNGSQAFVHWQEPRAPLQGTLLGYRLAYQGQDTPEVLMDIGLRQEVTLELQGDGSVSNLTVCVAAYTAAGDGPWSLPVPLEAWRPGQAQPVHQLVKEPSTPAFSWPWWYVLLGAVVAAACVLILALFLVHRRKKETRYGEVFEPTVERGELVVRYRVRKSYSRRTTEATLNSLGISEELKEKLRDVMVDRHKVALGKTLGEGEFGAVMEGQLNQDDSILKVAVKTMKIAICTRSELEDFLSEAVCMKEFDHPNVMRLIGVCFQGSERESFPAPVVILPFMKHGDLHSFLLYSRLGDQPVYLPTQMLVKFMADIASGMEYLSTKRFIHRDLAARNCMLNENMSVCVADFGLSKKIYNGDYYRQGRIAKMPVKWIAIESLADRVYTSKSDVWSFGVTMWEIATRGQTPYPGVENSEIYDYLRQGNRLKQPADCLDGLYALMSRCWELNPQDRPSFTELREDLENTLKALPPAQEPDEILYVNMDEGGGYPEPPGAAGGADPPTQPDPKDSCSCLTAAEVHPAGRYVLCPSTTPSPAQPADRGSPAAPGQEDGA
The experiment in a line: Phospho-Akt In-Cell Western Assay (inhibition of Axl activity after Axl-antibody cross-linking). In kind it is cell-based. To be noted: read-out: IC50. Summed up:
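HeLa cells on poly-L-lysine, starved 24 h in 0.5% FCS DMEM with Axl/Fc 500 ng/mL, pre-treated with compound 1 h at 37 °C, then stimulated 5 min by anti-Axl/anti-mouse antibody cross-linking. Fixed cells probed for phospho-Akt with HRP secondary and chemiluminescent detection.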

Where [1] appears, read: Hela cells, phospho-Akt chemiluminescence normalized to relative cell number, compounds of formula (Ia), Table 1.
Setting [2] is: inhibition of Axl activity, Table 1, compounds of formula (Ia).

By IC50 is commonly meant the concentration that inhibits the measured activity by half. Regarding `Nc1nc(Nc2ccc(N3CCN4CCCCCC4C3)c(F)c2)nn1-c1cc2c(nn1)-c1ccccc1CCC2` (stereo not shown) [Compound 73, 1-(6,7-dihydro-5H-benzo[6,7]cyclohepta[1,2-c]pyridazin-3-yl)-N^3-(3-fluoro-4-(decahydropyrazino[1,2-a]azepin-2-yl)phenyl)-1H-1,2,4-triazole-3,5-diamine], the IC50 under setting [1] is under 1000 nM.

Turning to `Nc1nc(Nc2ccc3c(c2)CCCCO3)nn1-c1cc2c(nn1)-c1ccccc1CCC2` [Compound 89, 1-(6,7-dihydro-5H-benzo[6,7]cyclohepta[1,2-c]pyridazin-3-yl)-N^3-(2,3,4,5-tetrahydrobenzo[b]oxepin-7-yl)-1H-1,2,4-triazole-3,5-diamine], the IC50 under setting [1] fell in the range of 1000 to 10000 nM.

For the compound `CN(C)CCN1CCN(C(=O)c2cc3cc(Nc4nc(N)n(-c5cc6c(nn5)-c5ccccc5SCC6)n4)ccc3s2)CC1` [Compound 131, 1-(6,7-dihydro-5H-benzo[2,3]thiepino[4,5-c]pyridazin-3-yl)-N^3-(2-(1-(4-(2-(dimethylamino)ethyl)-piperazin-1-yl)oxomethyl)benzo[b]thio-phen-5-yl)-1H-1,2,4-triazole-3,5-diamine], the IC50 under setting [2] fell in the range of 1000 to 10000 nM.

As for `Nc1nc(Nc2ccc(N3CCN(C4CCCCC4)CC3)cc2)nn1-c1cc2c(nn1)-c1ccccc1CCC2` [Compound 3, N^3-(4-(4-cyclohexanylpiperazin-1-yl)phenyl)-1-(6,7-dihydro-5H-benzo[6,7]cyclohepta[1,2-c]pyridazin-3-yl)-1H-1,2,4-triazole-3,5-diamine], the IC50 under setting [1] was under 1000 nM.

Consider `CCN(CC)CC1CCCN1c1ccc(Nc2nc(N)n(-c3cc4c(nn3)-c3ccccc3CCC4)n2)cn1` (stereo not shown) [Compound 130, 1-(6,7-dihydro-5H-benzo[6,7]cyclohepta[1,2-c]pyridazin-3-yl)-N^3-(6-(2-diethylaminomethyl)pyrrolidin-1-ylpyridin-3-yl)-1H-1,2,4-triazole-3,5-diamine], for which the IC50 under setting [2] is 1000 to 10000 nM.

For `Nc1nc(Nc2ccc(N3CCC(N4CCCC4)CC3)cc2)nn1-c1cc2c(nn1)-c1ccccc1CCC2` [Compound 101, 1-(6,7-dihydro-5H-benzo[6,7]cyclohepta[1,2-c]pyridazin-3-yl)-N^3-(4-(4-pyrrolidin-1-ylpiperidinyl)phenyl)-1H-1,2,4-triazole-3,5-diamine], the IC50 under setting [1] is under 1000 nM.

As to `Nc1nc(Nc2ccc3c(c2)CNCC3)n(-c2cc3c(nn2)-c2ccccc2CCC3)n1` [Compound 243, 1-(6,7-dihydro-5H-benzo[6,7]cyclohepta[1,2-c]pyridazin-3-yl)-N^5-(1,2,3,4-tetrahydroisoquinolin-7-yl)-1H-1,2,4-triazole-3,5-diamine], for the setting “Hela cells, phospho-Akt chemiluminescence normalized to relative cell number, compounds of formula (Ib), Table 2”, the IC50 lay in the range of 1000 to 10000 nM.

In the case of `Nc1nc(Nc2ccc(OCCN3CCCC3)c(F)c2)nn1-c1cc2c(nn1)-c1cc(F)ccc1CCC2` [Compound 54, 1-(6,7-dihydro-5H-10-fluorobenzo[6,7]cyclo-hepta[1,2-c]pyridazin-3-yl)-N^3-(3-fluoro-4-(2-(pyrrolidin-1-yl)ethoxy)phenyl)-1H-1,2,4-triazole-3,5-diamine], the IC50 under setting [1] is under 1000 nM.

For `CN1CCC(N2CCc3ccc(Nc4nc(N)n(-c5cc6c(nn5)-c5ccccc5CCC6)n4)cc3C2)CC1` [Compound 215, 1-(6,7-dihydro-5H-benzo[6,7]cyclohepta[1,2-c]pyridazin-3-yl)-N^3-(2-(1-methylpiperidin-4-yl)-1,2,3,4-tetrahydroisoquinolin-7-yl)-1H-1,2,4-triazole-3,5-diamine], the IC50 under setting [2] was under 1000 nM.

Consider `CN1CCC2(CCN(c3ccc(Nc4nc(N)n(-c5cc6c(nn5)-c5ccccc5CCC6)n4)cc3F)C2)C1` (stereo not shown) [Compound 110, 1-(6,7-dihydro-5H-benzo[6,7]cyclohepta[1,2-c]pyridazin-3-yl)-N^3-(3-fluoro-4-(7-methyl-2,7-diazaspiro[4.4]nonan-2-yl)phenyl)-1H-1,2,4-triazole-3,5-diamine], for which, under setting [1], the IC50 is under 1000 nM.
